pIC50: −log10 of the molar value. “And” between values parts separate entries of the source, which are not always exact repeats. Equal entries are not always repeated. Where two headings read alike, the source gives them in different places.
Columns and labels:
Type in all cases: cell-based
SW480 cells = system: SW480 cells
Experimental: For cell growth/density studies, a mitochondrial activity assay was used, as exemplified by the following. Cells (SW480, MCF-7S8) were propagated in complete medium (DME: F12, 10% FCS (SW 480) or 5% FCS (MCF-7S8, P/S)), trypsinized, and seeded in 96 well plates as 10,000 cells/well in medium with 0.5% FCS. All wells in the periphery were omitted and only filled with medium. […] All treatments are made in triplicates. […] Treatment was continued for 48 hours (SW480 cells) or 72 hours (MCF-7S8 cells) before quantification of the cell density. Media was exchanged each day. Media and peptides were diluted in DMSO. When measuring cell density, the volume of each well was adjusted to […] Pre-diluted WST-1 (1 ml+1.5 ml DME:F12) was added as 25 μL to each well including background samples. Three wells with media only served as background controls. The cells were incubated for 90 min protected against light in an incubator.

MAPK44 = experiment: downstream signaling in L6 cells: MAPK44; conditions: 3 nM IGF-1, read-out: MAPK44, IC50 for down regulation of the stimulation to the basal level
Experimental: (§1) The tyrosine phosphorylation of IRS signaling (the 180 kDa band on a tyrosine phosphor Western blot) as well as activation of effectors MAPK 44 and 42 and PKB were analyzed by using antibodies specific for their active forms using methods substantially similar to those described in Example 14 of the '246 PCT application.
(§2) The effect of select peptides on downstream signaling (MAPK44, MAPK42, PKB/Akt, IRS-1, and IGF-1R) was also measured by studying the signaling in L6 cells predominantly expressing IGF-1R and very limited insulin receptors. […] The antagonistic effect of the peptides can be seen to affect all the downstream signaling from the IGF-1R.

MAPK42 = experiment: downstream signaling in L6 cells: MAPK42; conditions: 3 nM IGF-1, read-out: MAPK42, IC50 for down regulation of the stimulation to the basal level
Experimental: as §1, §2

IGF-IR = experiment: downstream signaling in L6 cells: IGF-IR; conditions: 3 nM IGF-1, read-out: IGF-IR, IC50 for down regulation of the stimulation to the basal level
Experimental: as §1, §2

IRS-1 = experiment: downstream signaling: IRS-1 tyrosine phosphorylation; conditions: L6 cells; 3 nM IGF-1; read-out: IRS-1, IC50 for down regulation of the stimulation to the basal level
Experimental: as §1, §2

[1] = first value of the cell: concentration needed to blunt the effect of 10 nM IGF-1, cells in words only = effect as reported, 48 hours
[2] = read-out: IC50 in SW480 (M) in presence of IGF-1/alone: alone, second value of the cell: concentration needed to inhibit basal level in 0.5% FCS
[3] = read-out: IC50 in SW480 (M) in presence of IGF-1/alone: in presence of IGF-1, first value of the cell: concentration needed to blunt the effect of 10 nM IGF-1, cells in words only = effect as reported, 48 hours

| Substance | IC50 in SW480 (M) in presence of IGF-1/alone: in presence of IGF-1 (SW480 cells; [1]) | further results |
| --- | --- | --- |
| EERATPRWRGYEWFDAQVERE [Peptide F211] | No effect |  |
| GSLDESFYDWFERQLGKK-Lig [Peptide F118] | No effect |  |
| GIISQSCPESFYDWFAGQVSDPWWCW-Lig [Peptide F116] | No effect |  |
| Ac-VGRASGPPENFYDWPGRQLSLQSGEQRR [Peptide F287] | No effect |  |
| RQWDCRGRPCGDAESFYEWFDQQRS [Peptide F264] |  | IC50 (SW480 cells; [2]): > 1e-05 M; IC50 (SW480 cells; [3]): > 1e-05 M |
| ELQGFCELLATVTGVTGLGCLDYQPIE [Peptide F202] | No effect | IC50 (SW480 cells; [3]): > 1e-05 M; IC50 in SW480 (M) in presence of IGF-1/alone: alone (SW480 cells; second value of the cell: concentration needed to inhibit basal level in 0.5% FCS): no effect |
| VQDDCRGRPCGDADSFYEWFDQQAS [Peptide F263] |  | IC50 (SW480 cells; [2]): > 1e-06 M; IC50 (SW480 cells; [3]): > 1e-06 M |
| EIQRDCQGRPCGDAANFYDWFVQQDSE [Peptide F268] | No effect |  |
| ELSFACLLSQLSGVVLPDCLLGEDE [Peptide F201] | No effect |  |
| SFYSCLESLVKRPTERSRGQWVGCR [Peptide F320] | No effect | pIC50 (MAPK44): 6.00; pIC50 (MAPK42): 6.00; pIC50 (IGF-IR): 5.70 and < 6.00; pIC50 (IRS-1): < 5.70 |
| EGLLFCKQLFTLAGLQPEAGCVSSSRE [Peptide F165] | No effect |  |
| FFYRCLSRLLGGOLGSRLGLSCIGD [Peptide F139] | Antagonistic |  |
| DMGDVECEDPFYDWFACQVRDTEFDE [Peptide F115] | No effect |  |
| EVDRDCQARPCGDAANFYDWFGQQGTE [Peptide F269] |  | IC50 (SW480 cells; [2]): > 1e-05 M; IC50 (SW480 cells; [3]): 5e-07 M |
| VEGRGLFYDLLRQLLARRQNG [Peptide F158] | No effect |  |
| GVRAMSFYDALVSVLGLGPSG [Peptide F157] | No effect |  |
| SFYSCLGSLLTGAPQPIRGAWDRCR [Peptide F144] | No effect |  |
| GSLDESFYRWFERQLEGGSGGSGLEQERAGTWCENSGRGCLH [Peptide F156] | No effect |  |
| EFSGFCMGLERLSOVSLGYCGAGOGGE [Peptide F169] |  | IC50 (SW480 cells; [3]): 2e-06 M |

Source: patent US20110039779A1, “IGF-1R BINDING PROTEINS AND ANTAGONISTS” (priority 2007, published 2011)
